“And” between values parts separate entries of the source, which are not always exact repeats. Equal entries are not always repeated. Where two headings read alike, the source gives them in different places.
Experiments:
[1] = Plasma 5-HTP pharmacokinetics of 24 h continuous IV 5-HTP infusion, Phase 1 study; assay type: in vivo, human
Procedure: Study Design. A Phase 1, randomized, double-blind, placebo-controlled, single ascending dose study was performed to evaluate the safety, tolerability and pharmacokinetics (PK) of 5-HTP solution for IV infusion when administered to healthy adults taking a selective serotonin reuptake inhibitor (SSRI), escitalopram, for 3 weeks. Study duration was 37±3 days. The total individual subject participation time was no more than 66 days including screening, dosing, and follow-up phases. The IV infusion duration was 24 h, dosing with 5-HTP solution for IV infusion (see Example 3, above) or placebo (0.9% saline).
Subjects. A total of 39 healthy male and female subjects were randomized across 5 cohorts, each with 8 subjects (6 active:2 placebo) per cohort except for Cohort 5 (5 active:2 placebo). For each cohort, first 2 sentinel subjects received IV 5-HTP (N=1) or placebo (N=1) prior to dosing of the remaining 5 or 6 subjects.
IV infusion. 5-HTP solution for IV infusion or placebo was administered IV at a constant rate or ramped rate of infusion over 24 hr.
Constant rate infusion. 5-HTP solution for IV infusion was administered at constant infusion rates of 1 mg/kg/24 hr in Cohort 1 and 3 mg/kg/24 hr in Cohort 2. The infusion rate was 41.67 ml/h.
Ramp rate infusion. To gradually elevate 5-HTP plasma levels, 5-HTP solution for IV infusion was administered at a ramp rate of infusion for Cohorts 3, Cohort 4, and Cohort 5, at average 5-HTP infusion rates of 3 mg/kg/24 hr, 2 mg/kg/24 hr and 1 mg/kg/24 hr, respectively. The infusion volume rates were 13.89 ml/hr at T=0-4 hr; 27.78 ml/hr at T=4-8 hr; 41.67 ml/hr at T=8-12 hr; and 55.55 ml/hr at T=12-24 hr.
Bioanalysis. Plasma samples for 5-HTP analysis were collected and stored at −80° C. Plasma samples for escitalopram analysis were collected and stored at −80° C. Plasma 5-HTP levels and plasma escitalopram levels were measured using standard liquid chromatography with tandem mass spectrometry (LC-MS-MS) methods. For 5-HTP analysis, plasma samples were collected at T=0, 1, 2, 3, 4, 5, 6, 8, 10, 12, 14, 22, 24, 26, 28, 30, 32, 36, and 48 hr. For escitalopram analysis, plasma samples were collected on Day 7, Day 21 (pre-infusion), Day 22 (end of infusion), and Day 23 (24 hr after end of infusion). Plasma escitalopram levels were averaged across days 21-23, during the time-period when subjects were admitted to the clinic and received 5-HTP solution for IV infusion or placebo.
Statistical analysis. Subjects receiving placebo across the 5 cohorts (N=2 per cohort) were pooled. Descriptive statistics were calculated for each quantitative variable within each treatment group and placebo (n, mean, standard deviation, median, minimum, maximum).
PK analysis of plasma 5-HTP. The PK population included subjects who received 5-HTP solution for IV infusion and completed the 24 h infusion. PK parameters were computed for each Cohort/dose/infusion paradigm. Placebo data from all cohorts were pooled.

[2] = Safety and tolerability of IV 5-HTP continuous infusion; assay type: in vivo, human
Procedure: Methods: Safety and tolerability of the IV 5-HTP continuous infusion were assessed during the 24 hr administration of IV 5-HTP infusion (see Example 5) or placebo and approximately 24 hr after end of the infusion. Safety and tolerability of the IV 5-HTP infusion were assessed by monitoring of adverse events (AEs), standard clinical safety laboratory tests, electrocardiograms (ECG), vital signs, and clinical scales of suicidality. The safety population included all subjects. Vital sign measurements included systolic blood pressure (mmHg), diastolic blood pressure (mmHg), heart rate (beats/min), respiratory rate (breaths/min), and oral temperature. Twelve-lead electrocardiogram measurements were performed in triplicate. The recorded parameters included heart rate (beats/min), PR (msec), QRS (msec), and QTcF (msec). Assessments were rated as normal, not clinically significant, or clinically significant. Clinical laboratory tests included a complete blood count, chemistry panel, coagulation panel, and thyroid stimulating hormone.
Statistics: Descriptive statistics (n, mean, SD, minimum, and maximum) for absolute values and changes from baseline were calculated.

[3] = some solvents (Jacobsen et al, 2016a); cited from earlier work
[4] = both sexes, human, plasma, intravenous, 1 mg/kg, individual subjects, Constant rate 1 mg/kg/24 hr
[5] = both sexes, human, plasma, intravenous, 1 mg/kg, individual subjects, Ramp rate 1 mg/kg/24 hr
[6] = both sexes, human, plasma, intravenous, 2 mg/kg, individual subjects, Ramp rate 2 mg/kg/24 hr
[7] = both sexes, human, plasma, intravenous, 3 mg/kg, individual subjects, Constant rate 3 mg/kg/24 hr
[8] = both sexes, human, plasma, intravenous, 3 mg/kg, individual subjects, Ramp rate 3 mg/kg/24 hr
[9] = both sexes, human, plasma, iv, 1 mg/kg, Cohort 1, constant rate 1 mg/kg/24 hr IV, healthy adults on escitalopram, mean, N=6
[10] = both sexes, human, plasma, iv, 1 mg/kg, Cohort 5, ramp rate 1 mg/kg/24 hr IV, healthy adults on escitalopram, mean, N=5
[11] = both sexes, human, plasma, iv, 2 mg/kg, Cohort 4, ramp rate 2 mg/kg/24 hr IV, healthy adults on escitalopram, mean, N=6
[12] = both sexes, human, plasma, iv, 3 mg/kg, Cohort 2, constant rate 3 mg/kg/24 hr IV, healthy adults on escitalopram, mean, N=4 completers
[13] = both sexes, human, plasma, iv, 3 mg/kg, Cohort 3, ramp rate 3 mg/kg/24 hr IV, healthy adults on escitalopram, mean, N=6
[14] = individual subjects, Constant rate 1 mg/kg/24 hr
[15] = individual subjects, Constant rate 3 mg/kg/24 hr
[16] = individual subjects, Ramp rate 1 mg/kg/24 hr
[17] = individual subjects, Ramp rate 2 mg/kg/24 hr
[18] = individual subjects, Ramp rate 3 mg/kg/24 hr
[19] = 2 mg/kg/24 hr ramp rate infusion
[20] = ramp flow rate, 1 mg/kg/24 hr, subjects with event/subjects

differences in CAve, AUCInf or AUCLast between constant rate and ramp rate infusion ([1]; 1 mg/kg/24 hr or 3 mg/kg/24 hr average infusion rates, p>0.05, unpaired t-test): no significant differences
CAve (0-24 h) ([1]; Cohort 1, constant rate 1 mg/kg/24 hr IV, healthy adults on escitalopram, mean, N=6): 94 ng/mL
initial 5-HTP plasma levels, T=1 h ([1]; Cohort 2, constant 3 mg/kg/24 hr, the 2 discontinued subjects): 304 ng/mL
CAve (0-24 h) ([1]; Cohort 2, constant rate 3 mg/kg/24 hr IV, healthy adults on escitalopram, mean, N=4 completers): 268 ng/mL
CAve (0-24 h) ([1]; Cohort 4, ramp rate 2 mg/kg/24 hr IV, healthy adults on escitalopram, mean, N=6): 160 ng/mL
CAve (0-24 h) ([1]; Cohort 5, ramp rate 1 mg/kg/24 hr IV, healthy adults on escitalopram, mean, N=5): 82 ng/mL
AUC(0-inf) [1, 4]: 2920 ng·h/mL
AUC(0-t) [1, 4]: 2830 ng·h/mL
CMax ([1]; both sexes, human, plasma, intravenous, 1 mg/kg, individual subjects, Constant rate 1 mg/kg/24 hr, read-out: CMax): 118 ng/mL
AUC(0-inf) [1, 5]: 2810 ng·h/mL
AUC(0-t) [1, 5]: 2770 ng·h/mL
CMax ([1]; both sexes, human, plasma, intravenous, 1 mg/kg, individual subjects, Ramp rate 1 mg/kg/24 hr, read-out: CMax): 179 ng/mL
AUC(0-inf) [1, 6]: 6650 ng·h/mL
AUC(0-t) [1, 6]: 6540 ng·h/mL
CMax ([1]; both sexes, human, plasma, intravenous, 2 mg/kg, individual subjects, Ramp rate 2 mg/kg/24 hr, read-out: CMax): 407 ng/mL
AUC(0-inf) [1, 7]: 8000 ng·h/mL
AUC(0-t) [1, 7]: 7960 ng·h/mL
CMax ([1]; both sexes, human, plasma, intravenous, 3 mg/kg, individual subjects, Constant rate 3 mg/kg/24 hr, read-out: CMax): 397 ng/mL
AUC(0-inf) [1, 8]: 11200 ng·h/mL
AUC(0-t) [1, 8]: 11100 ng·h/mL
CMax ([1]; both sexes, human, plasma, intravenous, 3 mg/kg, individual subjects, Ramp rate 3 mg/kg/24 hr, read-out: CMax): 613 ng/mL
AUC(0-inf) [1, 9]: 2970 ng·h/mL
AUC(0-t) [1, 9]: 2910 ng·h/mL
half-life [1, 9]: 223 min
CMax ([1]; both sexes, human, plasma, iv, 1 mg/kg, Cohort 1, constant rate 1 mg/kg/24 hr IV, healthy adults on escitalopram, mean, N=6, read-out: CMax): 141 ng/mL
AUC(0-inf) [1, 10]: 3290 ng·h/mL
AUC(0-t) [1, 10]: 3240 ng·h/mL
half-life [1, 10]: 271 min
CMax ([1]; both sexes, human, plasma, iv, 1 mg/kg, Cohort 5, ramp rate 1 mg/kg/24 hr IV, healthy adults on escitalopram, mean, N=5, read-out: CMax): 209 ng/mL
AUC(0-inf) [1, 11]: 6440 ng·h/mL
AUC(0-t) [1, 11]: 6330 ng·h/mL
half-life [1, 11]: 264 min
CMax ([1]; both sexes, human, plasma, iv, 2 mg/kg, Cohort 4, ramp rate 2 mg/kg/24 hr IV, healthy adults on escitalopram, mean, N=6, read-out: CMax): 395 ng/mL
AUC(0-inf) [1, 12]: 8850 ng·h/mL
AUC(0-t) [1, 12]: 8800 ng·h/mL
half-life [1, 12]: 290 min
CMax ([1]; both sexes, human, plasma, iv, 3 mg/kg, Cohort 2, constant rate 3 mg/kg/24 hr IV, healthy adults on escitalopram, mean, N=4 completers, read-out: CMax): 427 ng/mL
AUC(0-inf) [1, 13]: 11000 ng·h/mL
AUC(0-t) [1, 13]: 10900 ng·h/mL
half-life [1, 13]: 306 min
CMax ([1]; both sexes, human, plasma, iv, 3 mg/kg, Cohort 3, ramp rate 3 mg/kg/24 hr IV, healthy adults on escitalopram, mean, N=6, read-out: CMax): ~592 ng/mL
time to average steady state plasma levels after start of infusion ([1]; constant 5-HTP infusion rates 1 mg/kg/24 hr and 3 mg/kg/24 hr): approximately 4 h
concentration at 1 h ([1]; human, plasma, intravenous, 3 mg/kg/24 hr, Cohort 2, constant 3 mg/kg/24 hr, the 2 discontinued subjects, read-out: initial 5-HTP plasma levels, T=1 h): 248 ng/mL
CMax [1, 15]: 480 ng/mL and 320 ng/mL and 512 ng/mL
time to average steady state plasma levels ([1]; variable (ramp) infusion, average rate 1-, 2-, and 3 mg/kg/24 hr): 14 to 24 h
Structure (SMILES): N[C@@H](Cc1c[nH]c2ccc(O)cc12)C(=O)O [5-HTP, 5-hydroxytryptophan]
AUCInf [1, 14]: 2551.36 ng·h/mL and 2930.09 ng·h/mL and 3832.68 ng·h/mL and 2234.41 ng·h/mL and 3351.07 ng·h/mL
AUCLast [1, 14]: 2530.16 ng·h/mL and 2885.80 ng·h/mL and 3762.18 ng·h/mL and 2185.63 ng·h/mL and 3291.36 ng·h/mL
CMax [1, 14]: 112 ng/mL and 143 ng/mL and 189 ng/mL and 114 ng/mL and 169 ng/mL
AUCInf [1, 15]: 9781.13 ng·h/mL and 7039.23 ng·h/mL and 10597.49 ng·h/mL
AUCLast [1, 15]: 9690.71 ng·h/mL and 6999.32 ng·h/mL and 10537.75 ng·h/mL
AUCInf [1, 16]: 4399.83 ng·h/mL and 3862.84 ng·h/mL and 2807.47 ng·h/mL and 2572.27 ng·h/mL
AUCLast [1, 16]: 4345.10 ng·h/mL and 3799.02 ng·h/mL and 2767.78 ng·h/mL and 2505.93 ng·h/mL
CMax [1, 16]: 266 ng/mL and 247 ng/mL and 192 ng/mL and 160 ng/mL
AUCInf [1, 17]: 6254.18 ng·h/mL and 6207.11 ng·h/mL and 6316.80 ng·h/mL and 6043.68 ng·h/mL and 7134.20 ng·h/mL
AUCLast [1, 17]: 6191.76 ng·h/mL and 6095.21 ng·h/mL and 6245.16 ng·h/mL and 5955.75 ng·h/mL and 6968.01 ng·h/mL
CMax [1, 17]: 373 ng/mL and 352 ng/mL and 385 ng/mL and 414 ng/mL and 437 ng/mL
AUCInf [1, 18]: 11393.96 ng·h/mL and 13786.66 ng·h/mL and 10786.90 ng·h/mL and 8427.71 ng·h/mL and 10152.61 ng·h/mL
AUCLast [1, 18]: 11310.89 ng·h/mL and 13698.51 ng·h/mL and 10738.77 ng·h/mL and 8350.62 ng·h/mL and 10098.28 ng·h/mL
CMax [1, 18]: 660 ng/mL and 679 ng/mL and 644 ng/mL and 454 ng/mL and 502 ng/mL
subjects in whom AEs occurred ([2]; 1 mg/kg/24 hr, ramp flow rate infusion): 2 subjects
mild AEs: chills, subjects with event [2, 19]: 1 and 1/6
mild AEs: dizziness, subjects with event [2, 19]: 1 and 1/6
5-HTP plasma exposure with which incidence of AEs was more commonly associated ([2]; all cohorts): > 100 ng/mL
severity of all AEs ([2]; all cohorts): mild-to-moderate
safety findings in clinical safety laboratory tests, vital signs, 12-lead electrocardiograms ([2]; all cohorts, 24 hr IV 5-HTP infusion): no safety findings
serious or severe AEs related to the IV 5-HTP infusion ([2]; any subjects, all cohorts): No serious or severe AEs
AEs ([2]; constant flow rate, 1 mg/kg/24 hr group): no AEs
concentration at 1 h ([2]; human, plasma, intravenous, constant rate 3 mg/kg/24 hr, read-out: plasma 5-HTP levels within 1 h in the subjects who discontinued): 250 to 300 ng/mL
5-HTP plasma levels associated with manifestation of AEs ([2]; ramp flow rate 1 mg/kg/24 hr, at highest flow rate 55.55 ml/h): 112 to 266 ng/mL
mild AEs: nausea [2, 20]: 1/5
mild AEs: vomiting [2, 20]: 1/5
moderate AEs: nausea [2, 20]: 1/5
moderate AEs: vomiting [2, 20]: 1/5
soluble in some solvents [3]: up to 100 mg/ml

Source: patent US11779567B2, “Method for optimizing 5-hydroxytryptamine function in the brain for therapeutic purposes” (Evecxia Therapeutics, Inc., priority 2021, dated 2023)
